This note sets out measurements from patent US4731451A, “N-((2-oxo-3(2H)benzothiazolyl)methyl)-2-chloroacetanilides” (Monsanto Company, priority 1980, dated 1988).

Holding throughout (experiment): Pre-emergent herbicidal activity (Table II)
Common to all, as to type: in vivo
Conditions in all cases: 2-3 weeks

In assay [1] the test system is Barnyardgrass. As to the method:
(§1) The pre-emergence tests are conducted as follows:
(§2) A good grade of top soil is placed in aluminum pans and compacted to a depth of three-eighths to one-half inch from the top of the pan. On the top of the soil is placed a predetermined number of seeds or vegetative propagules of various plant species. The soil required to level fill the pans after seeding or adding vegetative propagules is weighed into a pan. A known amount of the active ingredient applied in a solvent or as a wettable powder suspension and the soil are thoroughly mixed, and used as a cover layer for prepared pans. After treatment, the pans are moved into a greenhouse bench where they are watered from below as needed to give adequate moisture for germination and growth.
(§3) Approximately 2-3 weeks after seeding and treating, the plants are observed and the results recorded. The herbicidal rating is obtained by means of fixed scale based on the percent injury of each plant species. The ratings are defined as follows: […]
(§4) The plant species utilized in one set of tests, the data for which are shown in Table II, are identified by letter in accordance with the following legend: […]

Assay [2] deals with Canada Thistle. As to the method: as §1, §2, §3, §4
Assay [3] deals with Cocklebur. As to the method:
as §1, §2, §3, §4

Assay [4] relates to Downy Brome. As to the method: as §1, §2, §3, §4
Assay [5] has as its system Johnsongrass. On the procedure: as §1, §2, §3, §4
For assay [6], the system named is Lambsquarters. On the procedure:
as §1, §2, §3, §4

Assay [7] concerns Morningglory. As to the method: as §1, §2, §3, §4
Assay [8] deals with Quackgrass. On the procedure:
as §1, §2, §3, §4

The test system of assay [9] is Smartweed. On the procedure:
as §1, §2, §3, §4

Assay [10] has as its system Velvetleaf. As to the method:
as §1, §2, §3, §4

Assay [11] concerns Yellow Nutsedge. On the procedure:
as §1, §2, §3, §4

Structures are written as SMILES.
Also: ranges in brackets are in %.

On to `CCC1=C(N(Cn2c(=O)sc3ccccc32)C(=O)CCl)C(CC)CCC1` (stereo not drawn) [Example 5, N--[(2-oxo-3(2H)--benzothiazolyl)methyl]-N--(2,6-diethyl-1-cyclohexen-1-yl)-2-chloro-acetamide], for which the Herbicidal rating in assay [1] (5.6 kg/ha) was 1 (25-49); in assay [1] (11.2 kg/ha) it was 1 (25-49); in assay [2] (5.6 kg/ha), 0 (0-24); in [2] (11.2 kg/ha), 0 (0-24); in assay [3] (5.6 kg/ha), 0 (0-24); in assay [3] (11.2 kg/ha), 0 (0-24). In addition, the Herbicidal rating in [4] (5.6 kg/ha) was 0 (0-24); in assay [4] (11.2 kg/ha), 0 (0-24); in assay [5] (5.6 kg/ha), 0 (0-24); in assay [5] (11.2 kg/ha) it was 0 (0-24); in assay [6] (5.6 kg/ha), 1 (25-49); in [6] (11.2 kg/ha) it was 1 (25-49). The Herbicidal rating in [7] (5.6 kg/ha), in [7] (11.2 kg/ha), in assay [8] (5.6 kg/ha), in assay [8] (11.2 kg/ha), in [9] (5.6 kg/ha) and in [9] (11.2 kg/ha) was 0 (0-24) in each case. In addition, the Herbicidal rating in assay [10] (5.6 kg/ha), in assay [10] (11.2 kg/ha), in [11] (5.6 kg/ha) and in [11] (11.2 kg/ha) was 0 (0-24) throughout.

Turning to `CC1=C(N(Cn2c(=O)sc3cc(Br)ccc32)C(=O)CCl)C(C)CCC1` (stereo not drawn) [Example 7, N--[(6-bromo-2-oxo-3(2H)--benzothiazolyl)methyl]-N--(2,6-dimethyl-1-cyclohexen-1-yl)-2-chloroacetamide], the Herbicidal rating is 1 (25-49) in [1] (5.6 kg/ha); 1 (25-49) in [1] (11.2 kg/ha); 0 (0-24) in assay [2] (5.6 kg/ha); 0 (0-24) in assay [2] (11.2 kg/ha); 0 (0-24) in assay [3] (5.6 kg/ha); 0 (0-24) in assay [3] (11.2 kg/ha). Also, the Herbicidal rating in assay [4] (5.6 kg/ha) is given as 0 (0-24); in assay [4] (11.2 kg/ha), 0 (0-24); in assay [5] (5.6 kg/ha), 0 (0-24); in [5] (11.2 kg/ha) it was 0 (0-24); in assay [6] (5.6 kg/ha), 0 (0-24); in assay [6] (11.2 kg/ha), 1 (25-49). In addition, the Herbicidal rating in assay [7] (5.6 kg/ha), in [7] (11.2 kg/ha), in assay [8] (5.6 kg/ha), in assay [8] (11.2 kg/ha), in assay [9] (5.6 kg/ha) and in assay [9] (11.2 kg/ha) was 0 (0-24) in each case. Moreover, the Herbicidal rating in [10] (5.6 kg/ha), in assay [10] (11.2 kg/ha), in assay [11] (5.6 kg/ha) and in assay [11] (11.2 kg/ha) was 0 (0-24) each time.

`CCOc1ccc2c(c1)sc(=O)n2CN(C(=O)CCl)C1=C(C)C(C)CCC1` (stereo not drawn) [Example 8, N--[(6-ethoxy-2-oxo-3(2H)--benzothiazolyl)methyl]-N--(2,3-dimethyl-1-cyclohexen-1-yl)-2-chloroacetamide]: the Herbicidal rating was 1 (25-49) in [1] (5.6 kg/ha); 0 (0-24) in assay [1] (11.2 kg/ha); 0 (0-24) in assay [2] (5.6 kg/ha); 0 (0-24) in assay [2] (11.2 kg/ha); 0 (0-24) in assay [3] (5.6 kg/ha); 0 (0-24) in [4] (5.6 kg/ha). The Herbicidal rating in assay [4] (11.2 kg/ha), in assay [5] (5.6 kg/ha), in assay [5] (11.2 kg/ha), in [6] (5.6 kg/ha), in assay [6] (11.2 kg/ha) and in [7] (5.6 kg/ha) was 0 (0-24) throughout. Also, the Herbicidal rating in assay [7] (11.2 kg/ha), in assay [8] (5.6 kg/ha), in assay [8] (11.2 kg/ha), in assay [9] (5.6 kg/ha), in assay [9] (11.2 kg/ha) and in assay [10] (5.6 kg/ha) was 0 (0-24) in each case. The Herbicidal rating in assay [10] (11.2 kg/ha), in assay [11] (5.6 kg/ha) and in [11] (11.2 kg/ha) was 0 (0-24) each time.

On to `CC1=C(N(Cn2c(=O)oc3ccccc32)C(=O)CCl)C(C)CCC1` (stereo not drawn) [Example 11, N--[(2-oxo-3(2H)--benzoxazolyl)methyl]-N--(2,6-dimethyl-1-cyclohexen-1-yl)-2-chloro-amide], for which the Herbicidal rating in assay [1] (5.6 kg/ha) is 3 (75-100); in assay [1] (11.2 kg/ha), 3 (75-100); in [2] (5.6 kg/ha) it was 0 (0-24); in [2] (11.2 kg/ha), 0 (0-24); in assay [3] (5.6 kg/ha), 0 (0-24); in assay [3] (11.2 kg/ha), 0 (0-24). Besides, the Herbicidal rating is 3 (75-100) in [4] (5.6 kg/ha); 3 (75-100) in [4] (11.2 kg/ha); 0 (0-24) in assay [5] (5.6 kg/ha); 0 (0-24) in assay [5] (11.2 kg/ha); 2 (50-74) in assay [6] (5.6 kg/ha); 1 (25-49) in assay [6] (11.2 kg/ha). Also, the Herbicidal rating was 0 (0-24) in assay [7] (5.6 kg/ha); 0 (0-24) in assay [7] (11.2 kg/ha); 1 (25-49) in assay [8] (5.6 kg/ha); 3 (75-100) in [8] (11.2 kg/ha); 0 (0-24) in [9] (5.6 kg/ha); 0 (0-24) in [9] (11.2 kg/ha). Besides, the Herbicidal rating is reported as 0 (0-24) in assay [10] (5.6 kg/ha), 0 (0-24) in assay [10] (11.2 kg/ha), 3 (75-100) in assay [11] (5.6 kg/ha) and 1 (25-49) in assay [11] (11.2 kg/ha).
